The source of these data is patent publication US6444821B1, “Crystals of piperidine derivatives, intermediates for production of the same, and process for producing the same” (Ajinomoto Co., Inc., priority 1995, dated 2002).

Series [1] in a line: Oral bioavailability in Beagle dog (plasma AUC oral vs intravenous). The series is classed as in vivo. To be noted: 3.0 mg/kg, plasma sampled 30 minutes to 24 hours. The method, then: Each of the monohydrate and trihydrate crystals of Compound (I) produced in Examples 4 and 6 was orally administered to a Beagle dog at a dose of 3.0 mg/kg. After 30 minutes, 1 hour, 2 hours, 3 hours, 4 hours, 6 hours, 8 hours and 24 hours of the administration, the blood was collected, the concentration of Compound (I) in the plasma was measured, and the area under plasma concentration curve (AUC) was obtained.

Series [2] is described as follows: Storage stability of crystals. The series is classed as physicochemical. The settings on record: storage for 1 month. The text has this:
Still further, the monohydrate and trihydrate crystals of the present invention can be easily produced from α-type anhydride crystals and β-type anhydride crystals.

The nature of series [3]: Dissolution rate in gastric juice model solution (JP-1 solution). The series is classed as physicochemical. To be noted: 20 mg crystals in 500 ml JP-1 solution, 37° C., FIG. 9. The method, then: Each 20 mg of the monohydrate and trihydrate crystals of Compound (I) produced in Examples 4 and 6 was added to 500 ml of a gastric juice model solution (JP-1 solution according to Japan Pharmacopeia) of 37° C., and the concentration of Compound (I) in the solution was measured over the course of time.

Structures can show the parent of a compound that is named as a salt.

With `O=CN1CCC(C(=O)NCCN2CCC(=C3c4ccccc4C=Cc4ccccc43)CC2)CC1` [monohydrate crystals, N-(2-(4-(5H-dibenzo(a,d)cyclohepten-5-ylidene)-piperidino)ethyl)-1-formyl-4-piperidinecarboxamide hydrochloride monohydrate], the “bioavailability (ratio of the AUC value of oral administration to that of intravenous administration)” value in series [1] (hydrochloride monohydrate) stood at 73.4%. The “stability (chemical and physical) on storage” value in series [2] is given as “unchanged even after storage for 1 month”.
In the case of `O=CN1CCC(C(=O)NCCN2CCC(=C3c4ccccc4C=Cc4ccccc43)CC2)CC1` [trihydrate crystals, N-(2-(4-(5H-dibenzo[a,d]cyclohepten-5-ylidene)-piperidino)ethyl)-1-formyl-4-piperidinecarboxamide hydrochloride trihydrate], in series [3], the dissolution rate result is reported as “high dissolution rate compared to the monohydrate crystals”. Moreover, in series [1] (hydrochloride trihydrate), the “bioavailability (ratio of the AUC value of oral administration to that of intravenous administration)” value came to 49.6%.
